Where “and” joins values, the source holds several entries; their conditions need not be identical. Identical values can stand only once.

The subject of test [1] is pubic symphysis. The test is described as follows: Mouse pubic symphysis assay. The following applies: in vivo. The protocol:
The concentration of relaxin was determined by amino acid analysis.

Test [2] deals with rat isolated heart. The test is described as follows: Chronotropy and inotropy in Langendorff rat isolated heart. The settings on record: for maximum beating rate: 83 pMol. The protocol:
Male Sprague-Dawley rats weighing 300-350 g (Charles River, Portage, Ind., USA) were anesthetized with 60 mg/kg pentobarbital sodium (Fort Dodge Laboratories, Inc., Fort Dodge, Iowa, USA) intraperitoneally. Following thoracotomy, the hearts were removed and placed into 4° C. […] Any associated lung and thymic tissue were trimmed off and the ascending aorta cannulated. The heart was then perfused at 10 ml/min with Krebs-Henseleit solution at 37° C. The perfusion pressure was constantly monitored. A small incision was made in the left atrium and a water-filled balloon (Hugo Sachs Electronik, March-Hugstetten, Germany) connected to a pressure transducer (Gould Electronics, Valley View, Ohio, USA) was placed into the left ventricle for the measurement of left ventricular developed pressure (LVDP). From this pressure, recording heart rate was electronically derived on a Grass polygraph (Quincy, Mass., USA).
In six experiments, after a 15-20 minutes stabilization period, the atria were removed. The heart rate was then allowed to stabilize at its new rate before the administration of relaxin. In three experiments, the atria were left intact.
Relaxin was administered as 50 μl bolus injections into the perfusion fluid immediately prior to entering the heart. Cumulative dose-response curves were constructed using human recombinant H2 relaxin (Genentech, Inc. South San Francisco, Calif., USA). […] Serial dilutions of both drugs were made using 0.9% (w/v) saline solution.
Statistical significance was determined by a two-tailed Student's unpaired t-test and P<0.005 was taken as significant.

Test [3] relates to right atrium. The test is described as follows: Right atrial rate, isolated spontaneously beating right atrium. Set-up: species or system rat. The following applies: for right atrial heart rate % Δ, mean (X): mean of experiments; for right atrial heart rate / right atrial heart rate % Δ: single experiment. The procedure: Krebs-Henseleit solution was prepared with the following composition (in millimoles): NaCl 118; KCl 4.7; MgSO4 1.64; NaHCO3 24.88; KH2 PO4 1.18; d-glucose 11.1; bubbled with 95% O2 /5% CO2; CaCl2 2.52.
Human (H2) relaxin (hRLx-2, 1.5 mg/ml; Genentech) was diluted fresh daily to desired concentrations (500:1; 5000:1; 50000:1) in Krebs-Henseleit solution.
Male Wistar rats (Charles River) weighing 475-525 g each, were anesthetized with sodium pentobarbital (60 mg/kg). After thoracotomy, the heart was removed rapidly and placed in cold (4° C.) Krebs-Henseleit solution until spontaneous contractions ceased. The right and left atria were excised.
Tissue was bathed in an organ chamber holding 42 ml Krebs-Henseleit solution that was aerated with 95% O2 /5% CO2 and heated to 37° C. with a temperature controlled water jacket. Tissue contractions were measured with force-displacement transducers (Grass FT 0.3) and recorded on chart paper (Grass moled 79 polygraph). The rates of contractions were determined with a cardiotachometer (Grass). Electrical stimulation of tissue was induced through bipolar clip electrodes connected to a stimulator through a stimulus isolation unit (Grass model S48).
Stainless steel clips weighing 0.5 g each were attached to each end of the right atrium. One clip was secured to a hook within the organ chamber and the other clip was attached to the force-displacement transducer. The position of the transducer was adjusted to yield 0.5 g resting tension.
In all experiments the atria were allowed to stabilize for 30 minutes prior to addition of drugs. […] Thus, cumulative dose-response curves were generated. At 10 minute intervals, relaxin was added to each organ chamber to obtain bath concentrations of 100 pg/ml, 300 pg/ml, 1 ng/ml, 3 ng/ml, 10 ng/ml and 30 ng/ml.
Measurement of contraction rate and force of contraction following each dose of relaxin were obtained after responses reached a steady state. Rate was determined directly from the output of the cardiotachometer. Force of contraction was measured as the magnitude of the contractile twitches. In order to adjust for variations between tissues, data are expressed as percent changes from pre-drug values, as means±standard errors. Measurements of rate were obtained in seven right atria; measurement of contractile force were obtained in four left atria.

With relaxin, the biological activity entry in test [1] is on record as “biologically active”. The “transient increases in coronary perfusion pressure” value in test [2] is “not seen”. Moreover, the “effect on LVDP” value in test [2] (atria removed (LVDP 143±9 mmHg), 0.83 pMol) is recorded as “significantly reduced the LVDP to control levels”. The maximum beating rate is 268±7 bpm in test [2] (atria removed, basal 139±15 bpm) and 412±18 bpm in test [2] (intact heart preparations, basal 270±7 bpm). The inotropic effect entry in test [2] (isolated heart preparations) is on record as “no positive inotropic effects”. In addition, the “duration of chronotropic effect” value in test [2] (relaxin: single bolus administration of 830 pMol) was “up to two hours”. Moreover, the “right atrial heart rate % Δ, mean (X)” value in test [3] (100 pg (printed under 30 pg)) came out at 0.17%; in test [3] (300 pg (printed under 100 pg)) it was 3.83%; in test [3] (1 ng (printed under 300 pg)), 11.67%; in test [3] (3 ng (printed under 1 ng)) it was 23.33%; in test [3] (10 ng (printed under 3 ng)) it was 32.0%; in test [3] (30 ng (printed under 10 ng)), 36.2%. The “right atrial heart rate” value in test [3] (100 pg) was 290 beats/min and 270 beats/min and 300 beats/min and 320 beats/min; in test [3] (300 pg), 300 beats/min and 295 beats/min and 310 beats/min and 330 beats/min; in test [3] (1 ng), 320 beats/min and 310 beats/min and 350 beats/min and 345 beats/min; in test [3] (3 ng), 345 beats/min and 350 beats/min and 400 beats/min and 360 beats/min and 365 beats/min; in test [3] (10 ng) it was 345 beats/min and 390 beats/min and 445 beats/min and 370 beats/min and 385 beats/min and 380 beats/min; in test [3] (30 ng) it was 400 beats/min and 450 beats/min and 385 beats/min and 395 beats/min and 405 beats/min. Further, the “right atrial heart rate % Δ” value was 0% and 1% in test [3] (100 pg, change from pre-drug value); 3% and 9% and 5% and 0% in test [3] (300 pg). In addition, the “average increase in contraction rate” value in test [3] (30 ng/minute dose) is reported as 36%. Moreover, the “point of half maximal increase in contraction rate” value in test [3] (right atrium) was “about 1.8 ng/ml”.

Values taken from patent US5478807A, “Use of relaxin in the treatment of bradycardia” (Genentech, Inc., priority 1992, dated 1995).
